Reference: the NIST ThermoML archive (doi:10.1016/j.jct.2010.06.009)

Assay: activity coefficient (dimensionless); of the first substance listed, at infinite dilution; xn = mol fraction of the nth substance listed
Conditions: 101 kPa, Liquid, Chromatography, x1 = 0

Cc1ccccc1C [1,2-dimethylbenzene] + CCCCC[n+]1ccccc1.O=S(=O)([N-]S(=O)(=O)C(F)(F)F)C(F)(F)F
Conditions | activity coefficient
303.1 K | 1.57
312.8 K | 1.61
323.4 K | 1.63
333.4 K | 1.65
343.3 K | 1.66
353.5 K | 1.69

Cc1ccccc1C [1,2-dimethylbenzene] + CCCC[n+]1ccccc1.O=S(=O)([N-]S(=O)(=O)C(F)(F)F)C(F)(F)F
Conditions | activity coefficient
302.8 K | 2.22
312.5 K | 2.25
323.3 K | 2.26
333.3 K | 2.28
343.2 K | 2.28
353.2 K | 2.3

Cc1ccccc1C [1,2-dimethylbenzene] + CC[n+]1ccccc1.O=S(=O)([N-]S(=O)(=O)C(F)(F)F)C(F)(F)F
Conditions | activity coefficient
303.1 K | 2.66
313.2 K | 2.67
323.3 K | 2.68
333.1 K | 2.7
343.1 K | 2.7
353.1 K | 2.71

Cc1cccc(C)c1 [1,3-dimethylbenzene] + CCCCC[n+]1ccccc1.O=S(=O)([N-]S(=O)(=O)C(F)(F)F)C(F)(F)F
Conditions | activity coefficient
303 K | 1.76
312.8 K | 1.8
323.5 K | 1.81
333.4 K | 1.84
343.3 K | 1.87
353.3 K | 1.91

Cc1cccc(C)c1 [1,3-dimethylbenzene] + CCCC[n+]1ccccc1.O=S(=O)([N-]S(=O)(=O)C(F)(F)F)C(F)(F)F
Conditions | activity coefficient
302.8 K | 2.47
312.5 K | 2.49
323.3 K | 2.5
333.3 K | 2.51
343.1 K | 2.52
353.3 K | 2.53

Cc1cccc(C)c1 [1,3-dimethylbenzene] + CC[n+]1ccccc1.O=S(=O)([N-]S(=O)(=O)C(F)(F)F)C(F)(F)F
Conditions | activity coefficient
302.8 K | 3.07
313.2 K | 3.09
323.2 K | 3.1
333.1 K | 3.11
343 K | 3.12
353.1 K | 3.13

Cc1ccc(C)cc1 [1,4-dimethylbenzene] + CCCCC[n+]1ccccc1.O=S(=O)([N-]S(=O)(=O)C(F)(F)F)C(F)(F)F
Conditions | activity coefficient
303.1 K | 1.74
312.7 K | 1.79
323.5 K | 1.81
333.4 K | 1.84
343.3 K | 1.87
353.3 K | 1.91

Cc1ccc(C)cc1 [1,4-dimethylbenzene] + CCCC[n+]1ccccc1.O=S(=O)([N-]S(=O)(=O)C(F)(F)F)C(F)(F)F
Conditions | activity coefficient
302.8 K | 2.45
312.5 K | 2.48
323.3 K | 2.49
333.3 K | 2.52
343.1 K | 2.54
353.3 K | 2.54

Cc1ccc(C)cc1 [1,4-dimethylbenzene] + CC[n+]1ccccc1.O=S(=O)([N-]S(=O)(=O)C(F)(F)F)C(F)(F)F
Conditions | activity coefficient
302.6 K | 3.04
313.3 K | 3.05
323.2 K | 3.07
333.1 K | 3.08
343 K | 3.09
353.1 K | 3.11

C=CCCCCCCCC [1-decene] + CCCCC[n+]1ccccc1.O=S(=O)([N-]S(=O)(=O)C(F)(F)F)C(F)(F)F
Conditions | activity coefficient
303.1 K | 26.4
312.6 K | 25.1
322.6 K | 23.8
333.4 K | 22.1
343.4 K | 20.6
353.4 K | 19.3

C=CCCCCCCCC [1-decene] + CCCC[n+]1ccccc1.O=S(=O)([N-]S(=O)(=O)C(F)(F)F)C(F)(F)F
Conditions | activity coefficient
302.5 K | 46.7
313.2 K | 40.1
322.8 K | 39.6
332.8 K | 34.6
342.9 K | 31.2
353 K | 28.1

C=CCCCCCCCC [1-decene] + CC[n+]1ccccc1.O=S(=O)([N-]S(=O)(=O)C(F)(F)F)C(F)(F)F
Conditions | activity coefficient
302.9 K | 85.8
313.2 K | 77.2
323.2 K | 70
332.8 K | 62.7
342.9 K | 54.5
353 K | 46.9

C#CCCCCC [1-heptyne] + CCCCC[n+]1ccccc1.O=S(=O)([N-]S(=O)(=O)C(F)(F)F)C(F)(F)F
Conditions | activity coefficient
302.8 K | 4.17
313.6 K | 4
323.4 K | 3.87
333.3 K | 3.74
343.3 K | 3.58
353.3 K | 3.42

C#CCCCCC [1-heptyne] + CCCC[n+]1ccccc1.O=S(=O)([N-]S(=O)(=O)C(F)(F)F)C(F)(F)F
Conditions | activity coefficient
302.8 K | 5.63
313.3 K | 5.49
323.2 K | 5.29
333.1 K | 5.03
343.1 K | 4.79
353.1 K | 4.58

C#CCCCCC [1-heptyne] + CC[n+]1ccccc1.O=S(=O)([N-]S(=O)(=O)C(F)(F)F)C(F)(F)F
Conditions | activity coefficient
302.5 K | 8.41
313.2 K | 7.96
323 K | 7.5
333 K | 7.06
342.9 K | 6.53
353 K | 5.92

C#CCCCC [1-hexyne] + CCCCC[n+]1ccccc1.O=S(=O)([N-]S(=O)(=O)C(F)(F)F)C(F)(F)F
Conditions | activity coefficient
302.8 K | 2.92
313.6 K | 2.82
323.4 K | 2.66
333.3 K | 2.53
343.3 K | 2.42
353.3 K | 2.29

C#CCCCC [1-hexyne] + CCCC[n+]1ccccc1.O=S(=O)([N-]S(=O)(=O)C(F)(F)F)C(F)(F)F
Conditions | activity coefficient
303.5 K | 3.92
313.3 K | 3.72
323.2 K | 3.5
333.1 K | 3.29
343.1 K | 3.04
353.1 K | 2.82

C#CCCCC [1-hexyne] + CC[n+]1ccccc1.O=S(=O)([N-]S(=O)(=O)C(F)(F)F)C(F)(F)F
Conditions | activity coefficient
302.5 K | 5.26
313.2 K | 4.95
323 K | 4.63
333 K | 4.18
342.9 K | 3.88
353 K | 3.47

C#CCCCCCC [1-octyne] + CCCCC[n+]1ccccc1.O=S(=O)([N-]S(=O)(=O)C(F)(F)F)C(F)(F)F
Conditions | activity coefficient
302.8 K | 5.62
313.6 K | 5.47
323.4 K | 5.34
333.3 K | 5.22
343.4 K | 5.07
353.3 K | 4.94

C#CCCCCCC [1-octyne] + CCCC[n+]1ccccc1.O=S(=O)([N-]S(=O)(=O)C(F)(F)F)C(F)(F)F
Conditions | activity coefficient
302.6 K | 8.1
313.4 K | 7.82
323.2 K | 7.6
333.1 K | 7.34
343.1 K | 7.05
353.1 K | 6.8

C#CCCCCCC [1-octyne] + CC[n+]1ccccc1.O=S(=O)([N-]S(=O)(=O)C(F)(F)F)C(F)(F)F
Conditions | activity coefficient
302.5 K | 12.9
313.2 K | 12.3
323 K | 11.8
333 K | 11.1
342.9 K | 10.4
353 K | 9.74

C#CCCC [1-pentyne] + CCCCC[n+]1ccccc1.O=S(=O)([N-]S(=O)(=O)C(F)(F)F)C(F)(F)F
Conditions | activity coefficient
302.8 K | 2.01
313.5 K | 1.88
323.4 K | 1.75
333.3 K | 1.62
343.2 K | 1.5
353.4 K | 1.39

C#CCCC [1-pentyne] + CCCC[n+]1ccccc1.O=S(=O)([N-]S(=O)(=O)C(F)(F)F)C(F)(F)F
Conditions | activity coefficient
302.2 K | 2.67
313.4 K | 2.4
323.2 K | 2.23
333.1 K | 2.04
343 K | 1.88
353.1 K | 1.68

C#CCCC [1-pentyne] + CC[n+]1ccccc1.O=S(=O)([N-]S(=O)(=O)C(F)(F)F)C(F)(F)F
Conditions | activity coefficient
302.5 K | 3.2
313.2 K | 3
323 K | 2.73
333 K | 2.52
342.9 K | 2.23
353.1 K | 2.03

c1ccccc1 [benzene] + CCCCC[n+]1ccccc1.O=S(=O)([N-]S(=O)(=O)C(F)(F)F)C(F)(F)F
Conditions | activity coefficient
303.2 K | 0.98
312.6 K | 0.99
323.2 K | 1.01
333.1 K | 1.02
343.3 K | 1.03
353.5 K | 1.04

c1ccccc1 [benzene] + CCCC[n+]1ccccc1.O=S(=O)([N-]S(=O)(=O)C(F)(F)F)C(F)(F)F
Conditions | activity coefficient
302.8 K | 1.33
312.6 K | 1.34
323.2 K | 1.35
333.2 K | 1.35
343.1 K | 1.35
353.3 K | 1.36

c1ccccc1 [benzene] + CC[n+]1ccccc1.O=S(=O)([N-]S(=O)(=O)C(F)(F)F)C(F)(F)F
Conditions | activity coefficient
302.6 K | 1.5
313 K | 1.49
323.2 K | 1.47
333.1 K | 1.43
343 K | 1.39
353.1 K | 1.36

C1CCCCC1 [cyclohexane] + CCCCC[n+]1ccccc1.O=S(=O)([N-]S(=O)(=O)C(F)(F)F)C(F)(F)F
Conditions | activity coefficient
303.2 K | 7.35
312.7 K | 6.67
323.4 K | 5.91
333.3 K | 5.3
343.3 K | 4.66
353.3 K | 4.06

C1CCCCC1 [cyclohexane] + CCCC[n+]1ccccc1.O=S(=O)([N-]S(=O)(=O)C(F)(F)F)C(F)(F)F
Conditions | activity coefficient
302.9 K | 9.66
312.4 K | 8.64
323.2 K | 7.88
333.2 K | 6.7
343.3 K | 5.61
353.4 K | 4.72

C1CCCCC1 [cyclohexane] + CC[n+]1ccccc1.O=S(=O)([N-]S(=O)(=O)C(F)(F)F)C(F)(F)F
Conditions | activity coefficient
302.8 K | 11.4
313.3 K | 9.56
323.1 K | 8.04
333 K | 6.76
342.9 K | 5.63
353 K | 4.65

CCO [ethanol] + CCCCC[n+]1ccccc1.O=S(=O)([N-]S(=O)(=O)C(F)(F)F)C(F)(F)F
Conditions | activity coefficient
302.8 K | 2.09
313.5 K | 1.86
323.4 K | 1.67
333.3 K | 1.5
343.2 K | 1.35
353.4 K | 1.19

CCO [ethanol] + CCCC[n+]1ccccc1.O=S(=O)([N-]S(=O)(=O)C(F)(F)F)C(F)(F)F
Conditions | activity coefficient
302.5 K | 2.67
313.4 K | 2.26
323.1 K | 2.02
333.1 K | 1.8
343.1 K | 1.61
352.9 K | 1.45

CCO [ethanol] + CC[n+]1ccccc1.O=S(=O)([N-]S(=O)(=O)C(F)(F)F)C(F)(F)F
Conditions | activity coefficient
302.5 K | 2.63
313.1 K | 2.36
323 K | 2.13
332.9 K | 1.91
342.9 K | 1.71
353 K | 1.54

CCc1ccccc1 [ethylbenzene] + CCCCC[n+]1ccccc1.O=S(=O)([N-]S(=O)(=O)C(F)(F)F)C(F)(F)F
Conditions | activity coefficient
303.1 K | 1.93
312.8 K | 1.95
323.4 K | 1.96
333.4 K | 1.98
343.3 K | 1.99
353.5 K | 2
